Assay results: patent US12606559B2, “JAK inhibitor compounds, methods for synthesizing same and use thereof” (GALDERMA HOLDING SA, priority 2020, dated 2026)
Values joined by “and” are separate entries in the source; they are usually repeats but may differ in a detail not shown here. Identical values can stand only once. Like-named read-outs stand apart in the source and are kept apart here.

Key:
[1] = target: T1, CYP2D6 (Homo sapiens, UniProt P10635); assay: CYP2D6 inhibition in human liver microsomes; assay type: in vitro ADME; details: dextromethorphan
T1 construct: assessed in Human pooled liver microsomes of mixed gender; from tissue; host or cells: human pooled liver microsomes
Method: After 5 min at 37° C. incubations were started with NADPH and prolonged for 10 min. The test compound was tested up to 30 μM keeping the final concentration of organic solvent was below 0.5%. The final concentration of microsomes was 0.1 mg/ml to ensure linearity during the time of the incubation. The reaction was quenched by adding 3 volume of acetonitrile. After centrifugation the supernatant was analyzed by HPLC/MS/MS for the formation of des-methyldextromethorphane selectively produced by CYP2D6 and 1′hydroxymidazolam or 6β-hydroxytestosterone, selectively produced by CYP3A. IC50 was calculated with Graphpad Prism v.7 comparing the amount of metabolite produced in presence of the test compound with that produced in absence of test item.

[2] = target: T2, CYP3A4 (Homo sapiens, UniProt P08684); assay: CYP3A inhibition in human liver microsomes; assay type: in vitro ADME
T2 construct: assessed in Human pooled liver microsomes of mixed gender; from tissue; host or cells: human pooled liver microsomes

[3] = Thermodynamic solubility PG_H2O pH 6 2/8; assay type: physicochemical; details: PG/H2O 2/8, pH 6
[4] = system: IL-6 induced p-STAT3Y705 in skin; assay: In vivo pharmacodynamy model: IL-6 induced Phospho-STAT3, topical; parameters: species or system BALB/c ByJ Rj mice; details: topical 1 mM, vehicle PG/EtOH 3/7
[5] = Intrinsic clearance in mouse hepatocytes; assay type: in vitro ADME, male balb-c mouse; details: 2.5 μM
Method: (§1) The intrinsic clearance was assessed in cryopreserved Hepatocytes obtained by Human livers donors of mix gender pooled together, male balb-c mouse, male Wistar Han rats and male Göttingen minipig, by looking at the parent compound disappearance. The incubations were performed using a final concentration of viable cells of 1 million/ml (viability above 70%) and test item of 2.5 μM. Incubations were followed up to 2 h. Aliquotes were withdrawn at different time points and reaction quenched with acetonitrile. After centrifugation the supernatant was analyzed by HPLC/MS to quantify the remaining amount of parent in comparison with time 0. The clearance was calculated by fitting the log of the percentage remaining with Graphpad Prism ver.7.

[6] = system: IL6 signalling in hWB; assay: hWB assay, IL6; assay type: cell-based, human; details: human whole blood; read-out: hWB assay: IC50 IL6
[7] = system: Salmonella typhimurium TA98 and TA100; assay: Mini Ames assay (TA98 and TA100); assay type: cell-based; details: for AMES: TA98 and TA100, with and without S9; for increase in the mean number of revertants: TA98 and TA 100 with or without metabolic activation
From the text: The Ames test in micro-method (in 6-well plates=mini Ames) follows the general principles of the standard Ames's technique. The Ames test used strains of bacteria Salmonella typhimurium that carry mutations in the genes involved in histidine synthesis. These strains are auxotrophic mutants, they require histidine for growth but cannot produce it. The assay was used to observe the ability of the test item to induce reverse mutations allowing the bacteria to grow in a histidine-free medium. The number of bacteria that revert and acquire the wild-type ability to grow in the absence of histidine can be estimated by counting the colonies that develop upon incubation. The use of different strains allows the identification of different mechanisms of gene mutation (TA98 for detection of frameshift mutations and TA100 for detection of base pair substitutions).
In a number of cases, the test item itself is not directly mutagenic but its metabolic derivatives are.
A toxicity assessment was performed on complete nutriment agar plate (with histidine) to define the highest concentration to be used in the genotoxicity assay. Solutions were prepared in 100% DMSO. The first concentration analyzed in the well (6-well plate) was 500 μg per plate followed by 7 serial dilutions (2 times factor of dilution). Each concentration was tested in triplicate on each strain and for each condition of treatment. The viability of the positive and negative controls was analyzed for each strain, in the presence or absence of metabolic activation system, and were compared with historical data to validate the study. If no bacterial toxicity occurred, the highest concentration tested for genotoxicity was […]. If toxicity occurred, a viability above than 70% defined the highest concentration tested.
The genotoxicity assessment was performed on minimal agar plate (without histidine) following the same dilution procedure as for the cytotoxicity assessment. DMSO and phosphate buffer controls were used as negative controls. 2-Nitrofluorene (2NF), 2-Aminoanthracene (2AA) and 4-Nitro-1.2 phenylenediamine (DANB) were selected as positive controls.
Test items, positive and negative controls were incubated with the 2 bacterial strains. After 48 h incubation at 37° C. with and without metabolic activation (S9), the prototrophic mutant colonies that had grown on the plates were counted. The results were expressed as the mean number of revertants for each condition tested (3 replicates each) and for each concentration of the test item and controls. Induction ration, corresponding to the ratio of revertants in presence of test item versus spontaneous revertant, was determined for each concentration.

[8] = Protein binding analysis (RED), human plasma; assay type: in vitro ADME; details: 5 μM, RED 4 h
Method: (§2) The protein binding was assessed in plasma of Human, male balb-c mice, male Wistar Han rat, male Gottingen minipig by rapid equilibrium dialysis (RED) devices. After the plasma and buffer phosphate 50 mM pH7.4 were equilibrated at 37° C., the compound was added to plasma to reach a final concentration of 5 μM. An aliquot of plasma was withdrawn immediately. Equilibration under mild agitation was continued for 4 h. The plasma and buffer were sampled and samples were quenched with 4 volumes of acetonitrile and centrifuged. Supernatant was quantified in HPLC/MS/MS to calculate the recovery and the percentage of compound dissolved in the buffer (unbound) and bound to plasma proteins.

[9] = Kinetic aqueous solubility; assay type: physicochemical
[10] = system: IL-6 induced Phospho-STAT3 (Tyr705) in TF-1 cells; assay: In vitro cellular pSTAT3 assay, IL-6 stimulated TF-1 cells; assay type: cell-based; details: Homo sapiens
[11] = Intrinsic clearance in rat hepatocytes; assay type: in vitro ADME, male Wistar Han rats; details: 2.5 μM
Method: as §1

[12] = system: panel of 403 kinases; assay: Kinase selectivity scores S35 / S1 @ 10 μM (403 kinases); assay type: binding
[13] = SF logD; assay type: physicochemical
[14] = Protein binding analysis (RED), minipig plasma; assay type: in vitro ADME; details: male, Gottingen, pH 7.4, RED 4 h, read-out: minipig FU
Method: as §2

[15] = midazolam, read-out: IC50 CYP3A4 mid.
[16] = testosterone, read-out: IC50 CYP3A4 testo.
[17] = TF-1, cellular assay IL6, read-out: Free IC50
[18] = TF-1 cells, IL-6 100 ng/ml, pSTAT3, read-out: Cellular Assay: IC50 IL6

T2 sequence (P08684 2-503): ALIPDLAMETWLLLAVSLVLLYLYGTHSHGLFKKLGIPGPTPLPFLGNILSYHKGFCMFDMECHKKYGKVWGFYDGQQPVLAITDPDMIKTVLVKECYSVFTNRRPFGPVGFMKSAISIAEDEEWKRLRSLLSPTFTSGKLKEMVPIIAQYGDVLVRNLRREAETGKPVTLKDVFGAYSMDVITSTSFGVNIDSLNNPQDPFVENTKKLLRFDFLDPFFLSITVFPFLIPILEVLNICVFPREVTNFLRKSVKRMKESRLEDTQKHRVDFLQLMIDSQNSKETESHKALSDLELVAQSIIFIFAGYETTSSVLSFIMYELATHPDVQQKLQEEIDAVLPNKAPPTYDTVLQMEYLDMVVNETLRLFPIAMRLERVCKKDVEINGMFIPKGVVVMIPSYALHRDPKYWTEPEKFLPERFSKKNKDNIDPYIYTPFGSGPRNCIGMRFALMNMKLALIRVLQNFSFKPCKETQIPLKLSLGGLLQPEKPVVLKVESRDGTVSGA
T1 sequence (P10635 whole entry): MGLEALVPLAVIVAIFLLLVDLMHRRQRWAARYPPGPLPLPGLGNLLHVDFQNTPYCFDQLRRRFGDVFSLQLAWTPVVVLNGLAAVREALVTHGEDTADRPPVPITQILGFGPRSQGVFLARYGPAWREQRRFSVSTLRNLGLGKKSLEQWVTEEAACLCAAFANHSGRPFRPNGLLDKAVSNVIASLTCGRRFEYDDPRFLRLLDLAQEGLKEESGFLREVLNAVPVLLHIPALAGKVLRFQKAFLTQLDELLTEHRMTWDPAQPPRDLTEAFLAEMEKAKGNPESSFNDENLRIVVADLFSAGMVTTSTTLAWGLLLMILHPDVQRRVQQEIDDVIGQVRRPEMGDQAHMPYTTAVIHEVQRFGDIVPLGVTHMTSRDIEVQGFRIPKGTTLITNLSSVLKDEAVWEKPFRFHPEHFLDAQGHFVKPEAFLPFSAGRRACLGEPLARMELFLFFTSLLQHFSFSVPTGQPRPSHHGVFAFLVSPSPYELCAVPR

Compound | IC50 [1] [nM] | IC50 [2, 15] [nM] | IC50 [2, 16] [nM] | Thermodynamic sol PG_H2O pH 6 2/8 [3] | PD/IL6 mouse top @1 mM % inh vs vehicle [4] | Intr. Clear. mheps [5] [microL/min/10 6 cells] | IC50 [6] [nM] | AMES [7] | increase in the mean number of revertants [7] | hFU [8] [%] | Kinetic aq sol [9] [µM] | IC50 [10, 17] [nM] | IC50 [10, 18] [nM] | Intr. Clear. rheps [11] [microL/min/10 6 cells] | Selectivity @ 10 μM: number of kinases out of 403 [12] | logD [13] | fraction unbound at 4 h, 5 μM [14]
CC1CCN(C(=O)C[C@H]2C[C@@H](Nc3c(C#N)cnc4[nH]ccc34)C2)CC1 [Compound B, 4-(((cis)-3-(2-(4-Methylpiperidin-1-yl)-2-oxoethyl)cyclobutyl)amino)-1H-pyrrolo[2,3-b]pyridine-5-carbonitrile] | 25000 | 9400 | 5600 | 223 microM and 0.08 mg/mL | 81%/ND Tofa @ 10 mM | > 300 | 6900 | Neg/Neg | did not induce a biologically significant increase | 5.6 | 35 | 275 | 11 | 134 | 19/403 | 3.1 | 0.083
CC1(C)CCN(C(=O)C[C@H]2C[C@@H](Nc3c(C#N)cnc4[nH]ccc34)C2)CC1 [Compound A, 4-(((cis)-3-(2-(4,4-dimethylpiperidin-1-yl)-2-oxoethyl)cyclobutyl)amino)-1H-pyrrolo[2,3-b]pyridine-5-carbonitrile] | 25000 | 3600 | 1500 | 454 microM and 0.17 mg/mL | 66% | 215 | 1300 | Neg/Neg | did not induce a biologically significant increase | 4.4 | 15 | 367 | 11 | > 152 | 24/403 | 3.7 | 0.1
